This is an account of results in patent publication US8338637B2, “Therapeutic compounds” (Allergan, Inc., priority 2006, dated 2012).

Molecules are shown by their SMILES.

For one test, the target named is T1, EP4 receptors (Homo sapiens, UniProt P35408).
T1 construct: expressed in transfected cells; host or cells: HEK-293 cells (membrane fraction)
Kind of test: Radioligand binding, EP4 receptor. The note with it: [3H]PGE2 competition. As to the method: HEK-293 cells stably expressing the human or feline FP receptor, or EP1, EP2, or EP4 receptors were washed with TME buffer, scraped from the bottom of the flasks, and homogenized for 30 sec using a Brinkman PT 10/35 polytron. TME buffer was added to achieve a final 40 ml volume in the centrifuge tubes (the composition of TME is 100 mM TRIS base, 20 mM MgCl2, […]; 10N HCl is added to achieve a pH of 7.4).
The cell homogenate was centrifuged at 19000 r.p.m. for 20 min at 4° C. using a Beckman Ti-60 rotor. The resultant pellet was resuspended in TME buffer to give a final 1 mg/ml protein concentration, as determined by Biorad assay. Radioligand binding competition assays vs. [^3H-]17-phenyl PGF2[…] (5 nM) were performed in a 100 μl volume for 60 min. Binding reactions were started by adding plasma membrane fraction. The reaction was terminated by the addition of 4 ml ice-cold TRIS-HCl buffer and rapid filtration through glass fiber GF/B filters using a Brandel cell harvester. The filters were washed 3 times with ice-cold buffer and oven dried for one hour.
[^3H-] PGE2 (specific activity 180 Ci mmol) was used as the radioligand for EP receptors. [^3H] 17-phenyl PGF2α was employed for FP receptor binding studies. […] 17-phenyl PGF2α and non-specific binding determined with 10^−5M of unlabeled PGE2, or 17-phenyl PGF2α, according to receptor subtype studied.

The target in test [1] is T2, EP2 (Homo sapiens, UniProt P43116). Kind of test: cAMP assay, HEK-EBNA cells expressing EP2. It counts as cell-based. The arrangement: expressed in transfected cells; host or cells: HEK-EBNA cells. The procedure: A 384-well drug plate was prepared to contain 6 test compounds, PGE2 and cAMP in 16 serial dilutions in triplicate, using a Biomek station. HEK-EBNA cells expressing a target PG receptor subtype (EP2 or EP4) were suspended in a stimulation buffer (HBSS, 0.1% BSA, 0.5 mM IBMX and 5 mM HEPES, pH 7.4) in a density of 10^4 cells/5 μl. The reaction was initiated by mixing 5 μL drug dilutions with 5 μl of HEK-EBNA cells in a well, carried out for 30 min at room temperature, and followed by the addition of 5 μl anti-cAMP acceptor beads in the control buffer with Tween-20 (25 mM NaCl, 0.03% Tween-20, 5 mM HEPES, pH7.4). After 30 min in the dark at room temperature, the mixtures were incubated with 15 μl biotinylated-cAMP/strepavidin donor beads in Lysis/Detection buffer (0.1% BSA, 0.3% Tween-20 and 5 mM HEPES, pH7.4) for 45 min at the room temperature. Fluorescence changes were read using a Fusion-alpha HT microplate reader.
(In general: Cyclic AMP is a second messenger, typically raised through Gs and lowered through Gi signalling.)

In test [2] the target is T2, EP2. Kind of test: Competition binding, [3H]PGE2, HEK 293 cells expressing human EP2 receptors. The note with it: [3H]PGE2 competition. The arrangement: expressed in transfected cells; host or cells: HEK 293 cells (membranes or whole cells). As to the method: Competition binding experiments were performed in a medium containing Hank's balanced salt solution, Hepes 20 mM, pH 7.3, membranes (˜60 μg protein) or 2×10^5 cells from HEK 293 cells stably expressing human EP2 receptors, [^3H]PGE2 (10 nM) and various concentrations of test compounds in a total volume of 300 μl. Reaction mixtures were incubated at 23° C. for 60 min, and were filtered over Whatman GF/B filters under vacuum. Filters were washed three times with 5 ml ice-cold buffer containing 50 mM Tris/HCl (pH 7.3). Non-specific binding was estimated in the presence of excess unlabeled PGE2 (10 μM). Binding data fitted to the binding model for a single class of binding sites, using nonlinear regression analysis. IC50 values thus obtained were converted to Ki using the equation of Ki=(IC50/(1+[L]/KD) where [L] represents PGE2 concentration (10 nM) and KD the dissociation constant for [^3H]PGE2 at human EP2 receptors (40 nM). […]
The cell homogenate was centrifuged at 19000 r.p.m. for 20 min at 4° C. using a Beckman Ti-60 rotor. The resultant pellet was resuspended in TME buffer to give a final 1 mg/ml protein concentration, as determined by Biorad assay. […]
[^3H-] […] 17-phenyl PGF2α and non-specific binding determined with 10^−5M of unlabeled PGE2, or 17-phenyl PGF2α, according to receptor subtype studied.

T2 sequence (P43116 whole entry): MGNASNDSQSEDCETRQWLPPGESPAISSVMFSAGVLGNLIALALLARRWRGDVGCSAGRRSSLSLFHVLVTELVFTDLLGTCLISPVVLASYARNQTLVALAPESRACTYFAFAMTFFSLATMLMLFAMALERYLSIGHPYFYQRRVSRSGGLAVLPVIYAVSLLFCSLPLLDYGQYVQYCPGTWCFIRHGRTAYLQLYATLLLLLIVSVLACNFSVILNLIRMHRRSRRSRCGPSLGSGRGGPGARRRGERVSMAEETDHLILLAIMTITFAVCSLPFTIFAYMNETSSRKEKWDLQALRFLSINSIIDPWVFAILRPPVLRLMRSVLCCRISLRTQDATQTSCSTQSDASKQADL
T1 sequence (P35408 whole entry): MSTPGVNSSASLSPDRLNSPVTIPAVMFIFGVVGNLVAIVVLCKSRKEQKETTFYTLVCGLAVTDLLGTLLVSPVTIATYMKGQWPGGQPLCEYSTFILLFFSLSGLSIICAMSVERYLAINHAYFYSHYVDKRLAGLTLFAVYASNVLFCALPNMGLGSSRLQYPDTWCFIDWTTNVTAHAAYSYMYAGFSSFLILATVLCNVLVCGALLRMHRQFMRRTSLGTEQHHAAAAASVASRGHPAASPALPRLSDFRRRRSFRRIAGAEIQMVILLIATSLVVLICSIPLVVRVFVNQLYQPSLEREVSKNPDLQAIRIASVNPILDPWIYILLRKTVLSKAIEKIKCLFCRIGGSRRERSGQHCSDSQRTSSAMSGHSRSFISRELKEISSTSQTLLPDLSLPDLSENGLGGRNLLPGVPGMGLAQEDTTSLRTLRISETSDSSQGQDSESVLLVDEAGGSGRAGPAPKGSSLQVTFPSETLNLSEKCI

For orientation: Ki means the equilibrium dissociation constant of an inhibitor or competing ligand from its target. Read a low Ki as higher affinity. Broadly, the EC50 is the concentration that produces a half-maximal response. Read a low EC50 as an effect from little substance. As to `O=C(O)c1ccc(CCC[C@H]2CCC(=O)[C@@H]2COc2cc(Cl)cc(CO)c2)s1` [5-{3-[(1S,2S)-2-(3-Chloro-5-hydroxymethyl-phenoxymethyl)-3-oxo-cyclopentyl]-propyl}thiophene-2-carboxylic acid], the Ki on EP4 receptors was above 10000 nM; at EP2 [2], 300 nM. The compound further yielded an EC50 on EP2 [1] of 457 nM.

On to `O=C(O)c1ccc(CCC[C@H]2C=CC(=O)[C@@H]2COc2cc(Cl)cc(CO)c2)s1` [5-{3-[(1S,5S)-5-(3-Chloro-5-hydroxymethyl-phenoxymethyl)-4-oxo-cyclopent-2-enyl]-propyl}-thiophene-2-carboxylic acid], for which a half-maximal effect on EP2 [1] (EC50) was put at 8.7 nM. In addition, the Ki on EP2 [2] amounted to 201 nM.
